Results: patent publication US20070249670A1, “Glycogen Phosphorylase Inhibitor Compounds and Pharmaceutical Compositions Thereof” (SMITHKLINE BEECHAM CORPORATION, priority 2004, published 2007)
Where a name gives a salt, the structure may show the parent alone.

molecular target: T1, human liver glycogen phosphorylase a (HLGPa) (Homo sapiens, UniProt P06737); assay: Human liver glycogen phosphorylase a enzymatic activity assay (coupled, fluorescent resorufin readout, with and without 10 mM glucose); format: biochemical; details: human liver glycogen phosphorylase a enzymatic activity assay
T1 construct: creating a full-length cDNA fused at the 5′ end to codons for methionine-glycine-alanine-histidine; 6xHis tag (leader Met-Gly-Ala-His6-Gly-Gly) (N); made in house; host or cells: E. coli (bacterial expression plasmid pTXK1007LTev)
T1 sequence (P06737 2-847 limits assumed): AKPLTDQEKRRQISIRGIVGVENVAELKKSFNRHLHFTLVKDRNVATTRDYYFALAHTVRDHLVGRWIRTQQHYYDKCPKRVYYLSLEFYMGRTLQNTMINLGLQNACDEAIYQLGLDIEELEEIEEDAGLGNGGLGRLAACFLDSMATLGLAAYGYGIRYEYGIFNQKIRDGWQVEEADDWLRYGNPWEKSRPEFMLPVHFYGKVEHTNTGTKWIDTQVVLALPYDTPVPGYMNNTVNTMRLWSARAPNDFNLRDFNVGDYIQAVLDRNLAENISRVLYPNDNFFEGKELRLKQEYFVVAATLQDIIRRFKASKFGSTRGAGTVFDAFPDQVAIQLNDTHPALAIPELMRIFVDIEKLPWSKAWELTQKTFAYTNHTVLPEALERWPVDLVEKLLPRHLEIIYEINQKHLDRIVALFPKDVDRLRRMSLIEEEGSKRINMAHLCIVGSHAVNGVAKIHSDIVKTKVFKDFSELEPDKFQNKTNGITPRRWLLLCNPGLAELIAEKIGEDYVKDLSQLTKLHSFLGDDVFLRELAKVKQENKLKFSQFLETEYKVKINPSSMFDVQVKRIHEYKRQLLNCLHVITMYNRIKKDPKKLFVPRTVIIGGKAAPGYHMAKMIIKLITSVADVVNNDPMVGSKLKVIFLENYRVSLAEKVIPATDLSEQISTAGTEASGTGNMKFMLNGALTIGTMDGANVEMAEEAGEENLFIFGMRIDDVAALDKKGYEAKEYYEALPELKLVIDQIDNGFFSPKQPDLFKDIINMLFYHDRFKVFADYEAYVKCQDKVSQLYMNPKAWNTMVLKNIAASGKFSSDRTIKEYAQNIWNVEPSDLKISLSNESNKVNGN

Going from `C[C@H](NC(=O)c1cc2ccccc2cc1NC(=O)Nc1ccccc1Cl)C(=O)O` [Example 27, N-[3-({[(2-chlorophenyl)amino]carbonyl}amino)-2-naphthoyl]-L-alanine] to `C[C@@H](O)[C@H](NC(=O)c1cc2ccccc2cc1NC(=O)Nc1ccccc1Cl)C(=O)O` [Example 29, N-[3-({[(2-chlorophenyl)amino]carbonyl}amino)-2-naphthoyl]-L-threonine], the IC50 falls from 13.5 µM to 7.26 µM (1.9-fold). The second is the more potent here.

Going from `O=C(Nc1ccccc1Cl)Nc1cc2ccccc2cc1C(=O)N[C@@H](CO)C(=O)O` [Example 28, N-[3-({[(2-chlorophenyl)amino]carbonyl}amino)-2-naphthoyl]-L-serine] to `NC(=O)C[C@H](NC(=O)c1cc2ccccc2cc1NC(=O)Nc1ccccc1Cl)C(=O)O` [Example 31, N-[3-({[(2-chlorophenyl)amino]carbonyl}amino)-2-naphthoyl]-L-asparagine], the IC50 falls from 24.1 µM to 11.4 µM (2.1-fold). The second is the more potent here.

Going from `CC[C@H](C)[C@H](NC(=O)c1cc2ccccc2cc1NC(=O)Nc1ccccc1Cl)C(=O)O` [Example 30, N-[3-({[(2-chlorophenyl)amino]carbonyl}amino)-2-naphthoyl]-L-isoleucine] to `CC[C@H](C)[C@H](NC(=O)c1cc2ccccc2cc1NC(=O)Nc1c(C)cccc1Cl)C(=O)O` [Example 38, N-[3-({[(2-chloro-6-methylphenyl)amino]carbonyl}amino)-2-naphthoyl]-L-isoleucine], the IC50 falls from 22.1 µM to 0.28 µM (79-fold).

First: NC(=O)CC[C@H](NC(=O)c1cc2ccccc2cc1NC(=O)Nc1ccccc1Cl)C(=O)O [Example 32, N-[3-({[(2-chlorophenyl)amino]carbonyl}amino)-2-naphthoyl]-L-glutamine]
Second: O=C(O)CC[C@H](NC(=O)c1cc2ccccc2cc1NC(=O)Nc1ccccc1Cl)C(=O)O [Example 55, N-[3-({[(2-chlorophenyl)amino]carbonyl}amino)-2-naphthoyl]-L-glutamic acid]
The IC50 of the first is 3.9-fold higher: 41 µM for the first, 10.4 µM for the second. The second is the more potent here.

Going from `Cc1cccc(Cl)c1NC(=O)Nc1cc2ccccc2cc1C(=O)N[C@@H](C)C(=O)O` [Example 33, N-[3-({[(2-chloro-6-methylphenyl)amino]carbonyl}amino)-2-naphthoyl]-L-alanine] to `Cc1cccc(Cl)c1NC(=O)Nc1cc2ccccc2cc1C(=O)N[C@H](C(=O)O)C(C)C` [Example 36, N-[3-({[(2-chloro-6-methylphenyl)amino]carbonyl}amino)-2-naphthoyl]-L-valine], the IC50 rises from 0.52 µM to 1.71 µM (3.3-fold).

Compared with `Cc1cccc(Cl)c1NC(=O)Nc1cc2ccccc2cc1C(=O)N[C@@H](CO)C(=O)O` [Example 34, N-[3-({[(2-chloro-6-methylphenyl)amino]carbonyl}amino)-2-naphthoyl]-L-serine], `Cc1cccc(Cl)c1NC(=O)Nc1cc2ccccc2cc1C(=O)N[C@@H](CC(N)=O)C(=O)O` [Example 40, N-[3-({[(2-chloro-6-methylphenyl)amino]carbonyl}amino)-2-naphthoyl]-L-asparagine] is 1.5-fold lower in IC50: 0.64 µM for the first, 0.42 µM for the second. The second is the more potent here.

`Cc1cccc(Cl)c1NC(=O)Nc1cc2ccccc2cc1C(=O)N1CCC[C@H]1C(=O)O` [Example 35, 1-[3-({[(2-chloro-6-methylphenyl)amino]carbonyl}amino)-2-naphthoyl]-L-proline] and `Cc1cccc(Cl)c1NC(=O)Nc1cc2ccccc2cc1C(=O)N[C@H](C(=O)O)[C@@H](C)O` [Example 37, N-[3-({[(2-chloro-6-methylphenyl)amino]carbonyl}amino)-2-naphthoyl]-L-threonine] are within 1.5-fold of each other in IC50: 0.58 µM for the first, 0.43 µM for the second.

`Cc1cccc(Cl)c1NC(=O)Nc1cc2ccccc2cc1C(=O)N[C@@H](CC(C)C)C(=O)O` [Example 39, N-[3-({[(2-chloro-6-methylphenyl)amino]carbonyl}amino)-2-naphthoyl]-L-leucine] and `CSCC[C@H](NC(=O)c1cc2ccccc2cc1NC(=O)Nc1c(C)cccc1Cl)C(=O)O` [Example 60, N-[3-({[(2-chloro-6-methylphenyl)amino]carbonyl}amino)-2-naphthoyl]-L-methionine] are within 1.5-fold of each other in IC50: 0.6 µM for the first, 0.64 µM for the second.

Compared with `Cc1cccc(Cl)c1NC(=O)Nc1cc2ccccc2cc1C(=O)N[C@@H](CCC(N)=O)C(=O)O` [Example 41, N-[3-({[(2-chloro-6-methylphenyl)amino]carbonyl}amino)-2-naphthoyl]-L-glutamine], `Cc1cccc(Cl)c1NC(=O)Nc1cc2ccccc2cc1C(=O)N[C@@H](CCCCN)C(=O)O` [Example 59, N-[3-({[(2-chloro-6-methylphenyl)amino]carbonyl}amino)-2-naphthoyl]-L-lysine trifluoroacetate] is 2.3-fold higher in IC50: 1.32 µM for the first, 2.99 µM for the second. The first is the more potent here.

`Cc1ccccc1NC(=O)Nc1cc2ccccc2cc1C(=O)N[C@@H](CCC(=O)O)C(=O)O` [Example 42, N-[3-({[(2-methylphenyl)amino]carbonyl}amino)-2-naphthoyl]-L-glutamic acid] and `CSCC[C@H](NC(=O)c1cc2ccccc2cc1NC(=O)Nc1ccccc1C)C(=O)O` [Example 43, N-[3-({[(2-methylphenyl)amino]carbonyl}amino)-2-naphthoyl]-L-methionine] are within 1.5-fold of each other in IC50: 28.3 µM for the first, 18.9 µM for the second.

Going from `Cc1ccccc1NC(=O)Nc1cc2ccccc2cc1C(=O)N[C@@H](Cc1cnc[nH]1)C(=O)O` [Example 44, N-[3-({[(2-methylphenyl)amino]carbonyl}amino)-2-naphthoyl]-L-histidine trifluoroacetate] to `O=C(Nc1ccccc1Cl)Nc1cc2ccccc2cc1C(=O)N[C@@H](Cc1cnc[nH]1)C(=O)O` [Example 56, N-[3-({[(2-chlorophenyl)amino]carbonyl}amino)-2-naphthoyl]-L-histidine trifluoroacetate], the IC50 falls from 5.18 µM to 3.08 µM (1.7-fold). The second is the more potent here.

First: Cc1ccccc1NC(=O)Nc1cc2ccccc2cc1C(=O)N[C@@H](Cc1ccccc1)C(=O)O [Example 45, N-[3-({[(2-methylphenyl)amino]carbonyl}amino)-2-naphthoyl]-L-phenylalanine]
Second: O=C(Nc1ccccc1Cl)Nc1cc2ccccc2cc1C(=O)N[C@@H](Cc1ccccc1)C(=O)O [Example 57, N-[3-({[(2-chlorophenyl)amino]carbonyl}amino)-2-naphthoyl]-L-phenylalanine]
The IC50 of the first is 3.2-fold higher: 16.9 µM for the first, 5.21 µM for the second. The second is the more potent here.

`Cc1ccccc1NC(=O)Nc1cc2ccccc2cc1C(=O)N[C@@H](Cc1c[nH]c2ccccc12)C(=O)O` [Example 46, N-[3-({[(2-methylphenyl)amino]carbonyl}amino)-2-naphthoyl]-L-tryptophan] and `O=C(Nc1ccccc1Cl)Nc1cc2ccccc2cc1C(=O)N[C@@H](Cc1c[nH]c2ccccc12)C(=O)O` [Example 58, N-[3-({[(2-chlorophenyl)amino]carbonyl}amino)-2-naphthoyl]-L-tryptophan trifluoroacetate] are within 1.5-fold of each other in IC50: 3.73 µM for the first, 4.7 µM for the second.

Going from `Cc1cccc(C)c1NC(=O)Nc1cc2ccccc2cc1C(=O)N[C@@H](CCCCN)C(=O)O` [Example 47, N-[3-({[(2,6-dimethylphenyl)amino]carbonyl}amino)-2-naphthoyl]-L-lysine trifluoroacetate] to `Cc1cccc(C)c1NC(=O)Nc1cc2ccccc2cc1C(=O)N[C@@H](CCCNC(=N)N)C(=O)O` [Example 52, N-[3-({[(2,6-dimethylphenyl)amino]carbonyl}amino)-2-naphthoyl]-L-arginine], the IC50 falls from 8.06 µM to 4.64 µM (1.7-fold). The second is the more potent here.

`Cc1cccc(C)c1NC(=O)Nc1cc2ccccc2cc1C(=O)N[C@@H](CCC(=O)O)C(=O)O` [Example 48, N-[3-({[(2,6-dimethylphenyl)amino]carbonyl}amino)-2-naphthoyl]-L-glutamic acid] and `CSCC[C@H](NC(=O)c1cc2ccccc2cc1NC(=O)Nc1c(C)cccc1C)C(=O)O` [Example 49, N-[3-({[(2,6-dimethylphenyl)amino]carbonyl}amino)-2-naphthoyl]-L-methionine] are within 1.5-fold of each other in IC50: 1.73 µM for the first, 1.67 µM for the second.

First: Cc1cccc(C)c1NC(=O)Nc1cc2ccccc2cc1C(=O)N[C@@H](Cc1cnc[nH]1)C(=O)O [Example 50, N-[3-({[(2,6-dimethylphenyl)amino]carbonyl}amino)-2-naphthoyl]-L-histidine trifluoroacetate]
Second: Cc1cccc(C)c1NC(=O)Nc1cc2ccccc2cc1C(=O)N[C@@H](Cc1ccccc1)C(=O)O [Example 51, N-[3-({[(2,6-dimethylphenyl)amino]carbonyl}amino)-2-naphthoyl]-L-phenylalanine]
The IC50 of the first is 3.4-fold higher: 2.3 µM for the first, 0.68 µM for the second.

`Cc1cccc(C)c1NC(=O)Nc1cc2ccccc2cc1C(=O)N[C@@H](Cc1ccc(O)cc1)C(=O)O` [Example 53, N-[3-({[(2,6-dimethylphenyl)amino]carbonyl}amino)-2-naphthoyl]-L-tyrosine] and `Cc1cccc(C)c1NC(=O)Nc1cc2ccccc2cc1C(=O)N[C@@H](Cc1c[nH]c2ccccc12)C(=O)O` [Example 54, N-[3-({[(2,6-dimethylphenyl)amino]carbonyl}amino)-2-naphthoyl]-L-tryptophan trifluoroacetate] are within 1.5-fold of each other in IC50: 0.36 µM for the first, 0.51 µM for the second.
